In the test the target is Leukotriene B4 receptor 1 (Cavia porcellus). In words: Binding affinity towards LTB4 receptor guinea pig spleen cells using [3H]LTB4 as radioligand.

`CCCc1c(OCCCOc2cc(O)c(-c3ccc(F)cc3)cc2CC)cccc1[S+]([O-])c1ccccc1C(=O)O` (stereo not drawn) [2-{3-[3-(5-Ethyl-4'-fluoro-2-hydroxy-biphenyl-4-yloxy)-propoxy]-2-propyl-benzenesulfinyl}-benzoic acid]: affinity was put at a Ki of 0.0059 µM.
In the case of `CCCc1c(OCCCOc2cc(O)c(-c3ccc(F)cc3)cc2CC)cccc1C(=O)c1ccccc1C(=O)O` [2-{3-[3-(5-Ethyl-4'-fluoro-2-hydroxy-biphenyl-4-yloxy)-propoxy]-2-propyl-benzoyl}-benzoic acid] it was 0.033 µM; in that of `CCCc1c(OCCCOc2cc(O)c(-c3ccc(F)cc3)cc2CC)cccc1Sc1ccccc1C(=O)O` [2-{3-[3-(5-Ethyl-4'-fluoro-2-hydroxy-biphenyl-4-yloxy)-propoxy]-2-propyl-phenylsulfanyl}-benzoic acid], 0.042 µM.
